Among the data in patent publication US20230135152A1 (ACURASTEM INCORPORATED, priority 2020, published 2023) are IC50 and EC50 values, retold here.

The structures appear in SMILES notation.

Test [1] addresses T1, PIKFYVE (Homo sapiens, UniProt Q9Y2I7). In words: PIKFYVE assay (luciferase ADP-Glo kinase assay, Promega). The class given is biochemical. To be noted: Table 3. Put shortly: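 Kinase activity measured with a luciferase-based ADP-Glo read-out, which quantifies ADP formed by the enzyme.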
(In general: ADP-Glo turns the ADP formed in a reaction into a luminescent signal.)

Test [2] deals with T1, PIKFYVE. In words: Cell-based Pikfyve inhibition activity assay (EEA1 staining, mean vesicle size in BJ fibroblast cells). To be noted: Table 4, 4 hours treatment, 3 μM Apilimod = 100% inhibition. Put shortly:
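BJ fibroblasts treated 4 h at 37° C with eleven 3-fold doses (0.03-3000 nM), then fixed and stained for EEA1. Confocal images (20×, 16 tiles/well) analysed for mean vesicle size. Normalised to 0.5% DMSO (0%) and 3 μM apilimod (100%); dose-response fitted with variable slope.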

T1 sequence (Q9Y2I7 whole entry): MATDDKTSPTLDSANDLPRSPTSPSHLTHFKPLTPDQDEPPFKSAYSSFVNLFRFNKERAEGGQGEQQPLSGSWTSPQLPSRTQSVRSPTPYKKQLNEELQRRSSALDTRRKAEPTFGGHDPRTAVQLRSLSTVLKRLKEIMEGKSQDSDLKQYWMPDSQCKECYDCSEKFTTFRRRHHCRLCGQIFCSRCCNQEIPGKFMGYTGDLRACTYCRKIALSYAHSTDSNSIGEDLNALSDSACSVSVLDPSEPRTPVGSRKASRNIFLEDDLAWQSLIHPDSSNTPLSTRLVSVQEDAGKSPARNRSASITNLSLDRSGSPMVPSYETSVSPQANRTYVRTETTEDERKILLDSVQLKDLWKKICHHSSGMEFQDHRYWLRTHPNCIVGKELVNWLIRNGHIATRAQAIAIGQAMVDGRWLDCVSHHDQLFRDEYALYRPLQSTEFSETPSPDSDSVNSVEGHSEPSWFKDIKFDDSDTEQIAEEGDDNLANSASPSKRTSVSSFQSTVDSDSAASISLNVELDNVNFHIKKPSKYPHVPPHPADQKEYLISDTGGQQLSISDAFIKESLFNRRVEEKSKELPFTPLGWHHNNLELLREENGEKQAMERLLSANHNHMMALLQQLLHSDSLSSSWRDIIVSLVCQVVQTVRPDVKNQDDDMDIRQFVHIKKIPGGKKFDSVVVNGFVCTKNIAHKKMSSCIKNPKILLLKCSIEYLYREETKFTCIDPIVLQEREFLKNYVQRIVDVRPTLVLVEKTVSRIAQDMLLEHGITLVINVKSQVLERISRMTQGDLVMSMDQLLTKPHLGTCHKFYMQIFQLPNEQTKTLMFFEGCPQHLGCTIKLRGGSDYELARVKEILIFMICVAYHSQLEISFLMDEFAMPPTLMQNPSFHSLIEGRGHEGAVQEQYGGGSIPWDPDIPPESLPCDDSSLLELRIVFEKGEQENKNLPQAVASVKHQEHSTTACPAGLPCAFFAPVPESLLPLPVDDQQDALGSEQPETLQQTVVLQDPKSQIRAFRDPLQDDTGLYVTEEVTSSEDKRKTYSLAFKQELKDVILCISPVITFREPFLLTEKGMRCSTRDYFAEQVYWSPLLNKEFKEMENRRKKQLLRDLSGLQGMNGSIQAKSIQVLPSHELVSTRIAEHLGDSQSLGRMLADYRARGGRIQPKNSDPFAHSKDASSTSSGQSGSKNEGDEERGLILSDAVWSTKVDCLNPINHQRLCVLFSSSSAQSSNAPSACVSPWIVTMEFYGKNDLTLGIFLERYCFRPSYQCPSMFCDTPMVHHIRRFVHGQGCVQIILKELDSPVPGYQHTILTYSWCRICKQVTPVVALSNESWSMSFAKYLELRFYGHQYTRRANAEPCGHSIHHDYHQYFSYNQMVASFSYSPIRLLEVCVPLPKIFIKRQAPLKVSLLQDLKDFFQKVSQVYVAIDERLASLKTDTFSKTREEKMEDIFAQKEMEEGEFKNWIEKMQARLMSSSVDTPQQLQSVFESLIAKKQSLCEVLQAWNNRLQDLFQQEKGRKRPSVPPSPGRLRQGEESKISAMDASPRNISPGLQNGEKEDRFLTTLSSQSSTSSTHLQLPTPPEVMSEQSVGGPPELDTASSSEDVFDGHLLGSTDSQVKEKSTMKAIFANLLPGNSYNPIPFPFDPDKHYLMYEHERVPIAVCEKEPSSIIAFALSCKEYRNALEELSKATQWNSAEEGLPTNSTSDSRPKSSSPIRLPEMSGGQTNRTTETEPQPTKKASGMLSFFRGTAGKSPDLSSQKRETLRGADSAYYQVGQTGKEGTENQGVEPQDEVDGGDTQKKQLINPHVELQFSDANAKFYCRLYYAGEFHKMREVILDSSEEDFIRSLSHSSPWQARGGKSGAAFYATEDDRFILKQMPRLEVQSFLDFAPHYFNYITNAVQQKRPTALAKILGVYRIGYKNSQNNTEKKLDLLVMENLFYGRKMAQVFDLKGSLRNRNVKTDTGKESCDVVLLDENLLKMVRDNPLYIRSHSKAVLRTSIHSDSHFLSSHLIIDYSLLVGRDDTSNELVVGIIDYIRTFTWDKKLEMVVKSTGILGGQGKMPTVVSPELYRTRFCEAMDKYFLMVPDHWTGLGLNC

As usually defined, the IC50 is the concentration that inhibits the measured activity by half. One may read the EC50 as the concentration that produces a half-maximal response. A higher EC50 goes with a need for much substance. At PIKFYVE [1], `c1ccc(-c2ccn(-c3cc(N4CCOCC4)nc(OCc4cccnn4)n3)n2)cc1` [Compound 114, 4-(6-(3-phenyl-1H-pyrazol-1-yl)-2-(pyridazin-3-ylmethoxy)pyrimidin-4-yl)morpholine] registered an IC50 of 3 to 10 nM. On PIKFYVE [2], the concentration for a half-maximal effect (EC50) fell in the range of 100 to 500 nM.

On PIKFYVE [1], `Cn1ccc(COc2nc(N3CCOCC3)cc(-n3ccc(-c4ccccc4)n3)n2)n1` [Compound 115, 4-(2-((1-methyl-1H-pyrazol-3-yl)methoxy)-6-(3-phenyl-1H-pyrazol-1-yl)pyrimidin-4-yl)morpholine] displayed an IC50 of less than 3 nM. On PIKFYVE [2], this molecule had an EC50 of 100 to 500 nM.

Take `Cc1cccc(-c2ccn(-c3cc(N4CCOCC4)nc(OCCn4cnc(CO)c4)n3)n2)c1` [Compound 116, (1-(2-((4-morpholino-6-(3-(m-tolyl)-1H-pyrazol-1-yl)pyrimidin-2-yl)oxy)ethyl)-1H-imidazol-4-yl)methanol]: the IC50 against PIKFYVE [1] is less than 3 nM. Besides, the EC50 at PIKFYVE [2] lay within 100 to 500 nM.

Molecule `Cc1cccc(-c2ccn(-c3cc(N4CCOCC4)nc(OCCn4cnc(CN(C)C)c4)n3)n2)c1` [Compound 117, N,N-dimethyl-1-(1-(2-((4-morpholino-6-(3-(m-tolyl)-1H-pyrazol-1-yl)pyrimidin-2-yl)oxy)ethyl)-1H-imidazol-4-yl)methanamine] showed an IC50 against PIKFYVE [1] of 10 to 100 nM. Further, at PIKFYVE [2], the EC50 fell in the range of 500 to 5000 nM.

At PIKFYVE [1], `Cc1cccc(-c2ccn(-c3cc(N4CCOCC4)nc(OCCc4cn(C)cn4)n3)n2)c1` [Compound 118, 4-(2-(2-(1-methyl-1H-imidazol-4-yl)ethoxy)-6-(3-(m-tolyl)-1H-pyrazol-1-yl)pyrimidin-4-yl)morpholine] displayed an IC50 of less than 3 nM. Further, the EC50 on PIKFYVE [2] fell in the range of 20 to 100 nM.

`Cc1cccc(-c2ccn(-c3cc(N4CCOCC4)nc(OCCc4c[nH]cn4)n3)n2)c1` [Compound 119, 4-(2-(2-(1H-imidazol-4-yl)ethoxy)-6-(3-(m-tolyl)-1H-pyrazol-1-yl)pyrimidin-4-yl)morpholine] returned a half-maximal inhibitory concentration (IC50) against PIKFYVE [1] of 3 to 10 nM. Also, the EC50 at PIKFYVE [2] lay in the range of 20 to 100 nM.

For `Cc1cccc(-c2ccn(-c3cc(N4CCOCC4)nc(OCc4cn[nH]c4)n3)n2)c1` [Compound 120, 4-(2-((1H-pyrazol-4-yl)methoxy)-6-(3-(m-tolyl)-1H-pyrazol-1-yl)pyrimidin-4-yl)morpholine], on PIKFYVE [1], the IC50 lay within 10 to 100 nM. Moreover, on PIKFYVE [2], the EC50 lay in the range of 100 to 500 nM.

Regarding `Cc1cccc(-c2ccn(-c3cc(N4CCOCC4)nc(OCCO)n3)n2)c1` [Compound 121, 2-((4-morpholino-6-(3-(m-tolyl)-1H-pyrazol-1-yl)pyrimidin-2-yl)oxy)ethan-1-ol], at PIKFYVE [1], the IC50 is 3 to 10 nM. The concentration giving a half-maximal response (EC50) at PIKFYVE [2] lay within 100 to 500 nM.

Molecule `Cc1cccc(-c2ccn(-c3cc(N4CCOCC4)nc(OCC4COC4)n3)n2)c1` [Compound 122, 4-(2-(oxetan-3-ylmethoxy)-6-(3-(m-tolyl)-1H-pyrazol-1-yl)pyrimidin-4-yl)morpholine] yielded an IC50 at PIKFYVE [1] of 3 to 10 nM. This molecule returned a concentration for a half-maximal effect (EC50) on PIKFYVE [2] of 100 to 500 nM.

Take `Cn1cc(CCOc2nc(N3CCOCC3)cc(-n3ccc(C4CC4)n3)n2)cn1` [Compound 123, 4-(6-(3-cyclopropyl-1H-pyrazol-1-yl)-2-(2-(1-methyl-1H-pyrazol-4-yl)ethoxy)pyrimidin-4-yl)morpholine]: at PIKFYVE [1], the IC50 was 10 to 100 nM. On PIKFYVE [2], this molecule yielded an EC50 of 500 to 5000 nM.

Consider `CCCc1ccn(-c2cc(N3CCOCC3)nc(OCCc3cnn(C)c3)n2)n1` [Compound 124, 4-(2-(2-(1-methyl-1H-pyrazol-4-yl)ethoxy)-6-(3-propyl-1H-pyrazol-1-yl)pyrimidin-4-yl)morpholine], for which the IC50 at PIKFYVE [1] was greater than 5000 nM. At PIKFYVE [2], this molecule had an EC50 greater than 5000 nM.

For `Cc1ccccc1-c1ccn(-c2cc(N3CCOCC3)nc(OCCc3cnn(C)c3)n2)n1` [Compound 125, 4-(2-(2-(1-methyl-1H-pyrazol-4-yl)ethoxy)-6-(3-(o-tolyl)-1H-pyrazol-1-yl)pyrimidin-4-yl)morpholine], the IC50 on PIKFYVE [1] fell in the range of 10 to 100 nM. In addition, the concentration giving a half-maximal response (EC50) on PIKFYVE [2] was 100 to 500 nM.

`Cn1cc(CCOc2nc(N3CCOCC3)cc(-n3ccc(-c4cccc(C#N)c4)n3)n2)cn1` [Compound 126, 3-(1-(2-(2-(1-methyl-1H-pyrazol-4-yl)ethoxy)-6-morpholino-pyrimidin-4-yl)-1H-pyrazol-3-yl)benzonitrile] registered a 50% inhibitory concentration (IC50) on PIKFYVE [1] of 10 to 100 nM. The molecule also had an EC50 on PIKFYVE [2] of 100 to 500 nM.

`Cc1cc(-c2ccccc2)nn1-c1cc(N2CCOCC2)nc(OCCc2cnn(C)c2)n1` [Compound 127, 4-(2-(2-(1-methyl-1H-pyrazol-4-yl)ethoxy)-6-(5-methyl-3-phenyl-1H-pyrazol-1-yl)pyrimidin-4-yl)morpholine] had an IC50 on PIKFYVE [1] of less than 3 nM. Further, the EC50 on PIKFYVE [2] fell in the range of 20 to 100 nM.

Consider `Cn1cc(CCOc2nc(N3CCOCC3)cc(-n3ccc(COc4ccccc4)n3)n2)cn1` [Compound 128, 4-(2-(2-(1-methyl-1H-pyrazol-4-yl)ethoxy)-6-(3-(phenoxymethyl)-1H-pyrazol-1-yl)pyrimidin-4-yl)morpholine], for which, on PIKFYVE [1], the IC50 is 3 to 10 nM. Further, the EC50 on PIKFYVE [2] lay within 500 to 5000 nM.

In the case of `Cn1cc(CCOc2nc(N3CCOCC3)cc(-n3ccc(OCc4ccccc4F)n3)n2)cn1` [Compound 129, 4-(6-(3-((2-fluorobenzyl)oxy)-1H-pyrazol-1-yl)-2-(2-(1-methyl-1H-pyrazol-4-yl)ethoxy)pyrimidin-4-yl)morpholine], the IC50 at PIKFYVE [1] is 3 to 10 nM. This molecule also showed a concentration giving a half-maximal response (EC50) on PIKFYVE [2] of 100 to 500 nM.

For `COCC(O)c1nc(N2CCOCC2)cc(-n2ccc(-c3cccc(C)c3)n2)n1` (stereo not shown) [Compound 155, 2-methoxy-1-(4-morpholino-6-(3-(m-tolyl)-1H-pyrazol-1-yl)pyrimidin-2-yl)ethan-1-ol], at PIKFYVE [1], the 50% inhibitory concentration (IC50) was 3 to 10 nM. In addition, the EC50 on PIKFYVE [2] lay within 100 to 500 nM.

`Cc1cccc(-c2ccn(-c3cc(N4CCOCC4)nc(OCC(=O)c4ccccc4)n3)n2)c1` [Compound 169] had an IC50 against PIKFYVE [1] of 10 to 100 nM. On PIKFYVE [2], this molecule gave an EC50 of 100 to 500 nM.

For the molecule `Cn1cc(CCOc2nc(N3CCOCC3)cc(-n3ccc(C(=O)N4CCCCC4)n3)n2)cn1` [Compound 172, (1-(2-(2-(1-methyl-1H-pyrazol-4-yl)ethoxy)-6-morpholinopyrimidin-4-yl)-1H-pyrazol-3-yl)(piperidin-1-yl)methanone], the IC50 against PIKFYVE [1] is 100 to 5000 nM. The molecule also gave an EC50 on PIKFYVE [2] greater than 5000 nM.

For `Cn1cc(CCOc2nccc(N3CCOCC3)n2)cn1` [Compound 173, 4-(2-(2-(1-methyl-1H-pyrazol-4-yl)ethoxy)pyrimidin-4-yl)morpholine], the IC50 on PIKFYVE [1] was greater than 5000 nM. The molecule further displayed an EC50 at PIKFYVE [2] greater than 5000 nM.

With `Cc1cccc(-c2ccn(-c3cc(N4CCOCC4)nc(OCC#N)n3)n2)c1` [Compound 174, 2-((4-morpholino-6-(3-(m-tolyl)-1H-pyrazol-1-yl)pyrimidin-2-yl)oxy)acetonitrile], on PIKFYVE [1], the half-maximal inhibitory concentration (IC50) fell in the range of 3 to 10 nM. For the same molecule, the EC50 at PIKFYVE [2] lay in the range of 100 to 500 nM.

On to `Cc1cccc(-c2ccn(-c3cc(N4CCOCC4)nc(OCCCC#N)n3)n2)c1` [Compound 175, 4-((4-morpholino-6-(3-(m-tolyl)-1H-pyrazol-1-yl)pyrimidin-2-yl)oxy)butanenitrile], for which the IC50 against PIKFYVE [1] is less than 3 nM. The same molecule had an EC50 at PIKFYVE [2] of 20 to 100 nM.

As for `Cc1cccc(-c2ccn(-c3cc(N4CCOCC4)nc(OCC4(C)COC4)n3)n2)c1` [Compound 176, 4-(2-((3-methyloxetan-3-yl)methoxy)-6-(3-(m-tolyl)-1H-pyrazol-1-yl)pyrimidin-4-yl)morpholine], on PIKFYVE [1], the IC50 was less than 3 nM. In addition, the EC50 on PIKFYVE [2] was in the range of 100 to 500 nM.
